These results are taken from patent US20210161877A1, “GASTROPROTECTED, HYDROPHOBIC FORMULATION OF AT LEAST ONE ACTIVE PRINCIPLE AND METHOD FOR OBTAINING SAME” (priority 2018, published 2021).

Data set [1] can be described thus: Stability of the particles in 0.1 N hydrochloric acid solution, HPLC assay. In kind it is physicochemical. Particulars: 0.1 N HCl medium at 25° C., 500 ml, 20 mg of BZ, 120 minutes of incubation; percentage of the initial dose. The method, then:
Measurement of the stability of the particles in 0.1 N hydrochloric acid solution, via an HPLC assay method: • Column (ProntoSlL, Bischoff, Germany): C18, 5 μm, 120 Å, 4.6×150 mm, • Mobile phase: methanol, 65%/10 mM Na2HPO4, 35%, • Flow rate: 1.00 mL/min, • Temperature: 20° C. (thermostat), • Detection: UV (λ=310 nm) • Injection volume: 20 μL.
The stability is measured in 0.1 N HCl medium at 25° C., for a volume of 500 ml and 20 mg of BZ. The results collated in FIG. 2 are expressed as a percentage of the initial dose.

Data set [2] can be described thus: Test of gastroprotection and preliminary bioavailability on animals (oral administration). Particulars: rat, in vivo, fasted male Sprague-Dawley rats, 40 mg/kg of BZ. The method, then: Test of gastroprotection and preliminary bioavailability on animals. In this test, the protective capacity of the BZ-AT formulation according to the invention as described in this example and of an unprotected form of BZ are compared.
Each formulation is administered orally to male Sprague-Dawley rats weighing between 175-250 g. Tests are performed with pure BZ and the BZ-AT form taken up at 10 mg/ml in the following aqueous solution:
The volume that may be administered is adjusted as a function of each animal to enable a dose of 4 mL/kg to be achieved, i.e. 40 mg/kg of BZ. The administration is performed orally on the fasted animal.

Molecules are shown by their SMILES.

For orientation: AUC means the area under the concentration-time curve, a measure of exposure. A high value points to high exposure. Broadly, the Cmax is the peak of the concentration-time curve. A word on the Tmax: it is the time at which the peak concentration occurs. In the case of `COCCCOc1ccnc(C[S+]([O-])c2nc3ccccc3[nH]2)c1C` (stereo not shown) [BZ, 2-([4-(3-methoxypropoxy)-3-methylpyridin-2-yl]methylsulfinyl)-1H-benzo[d]imidazole], the degradation in data set [1] is 100%. For the same compound, in data set [2], the AUC was below 5 ng·h/mL, the Cmax is 2.54 ng/mL and the Tmax amounted to 48 min.
